Read-outs that look alike come from different tables or passages of the source.
Legend:
[1] = Half-life in fish-farm sediment (Skye); format: physicochemical; conditions: Not GLP/GEP
Description: In common with most plant-derived biocides, the azadirachtin terpenoids have a short half-life in the environment. They hydrolyse in water, and their disappearance is faster the more alkaline the water. For example, at pH 7.0 and 20° C. the half-life of azadirachtin terpenoids is 19.5 days, and at pH 8.0 it is 4.4 days. As seawater is slightly alkaline, (pH 7.5-8.4) any dissolved azadirachtin terpenoids will have largely disappeared within a week. Azadirachtin is rapidly catabolized by the microflora in soil. […] Preliminary studies with some sediment from below cages in Skye (Scotland) and subsequently infused with NeemAzal® in the laboratory have indicated a half-life of 3 weeks for NeemAzal® Technical added to the sediment and incubated at 15° C. Unchanged excreted material will be infinitely diluted in the water and hydrolyzed within days into small fragments without biological activity.

[2] = 20° C.; cited from earlier work
[3] = cited from earlier work
DT50 in sea water = format: physicochemical; conditions: 16° C.; Not GLP/GEP

SMILES: C/C=C(\C)C(=O)O[C@H]1C[C@@H](OC(C)=O)[C@@]2(C(=O)OC)CO[C@H]3[C@@H](O)[C@@](C)([C@]45O[C@@]4(C)[C@H]4C[C@@H]5O[C@@H]5OC=C[C@@]54O)[C@H]4[C@]1(CO[C@]4(O)C(=O)OC)[C@@H]32 (relative stereo) [Azadirachtin A, dimethyl [2aR-[2aα,3β,4β(1aR*,2S*,3aS*,6aS*,7S*,7aS*),4aβ,5α,7aS*,8β(E),10β,10aα,10bβ]]-10-(acetyloxy)octahydro-3,5-dihydroxy-4-methyl-8-[(2-methyl-1-oxo-2-butenyl)oxy]-4-(3a,6a,7,7a)-tetrahydro-6a-hydroxy-7a-methyl-2,7-methanofuro[2,3-b]oxireno[e]oxepin-1a(2H)-yl)-1H,7H-naphtho-[1,8-bc:4,4a-c′]difuran-5,10a(8H)-dicarboxylate]
- DT50 in fish-farm sediment (Skye) [1]: 3 weeks
- DT50 in field soil [2]: 4 to 5 days
- DT50 in fresh water ([3]; pH 4.0): 50 days
- DT50 in fresh water ([3]; pH 7.0): 19 days
- DT50 in fresh water ([3]; pH 8.0): 4 days
- DT50 in sea water (DT50 in sea water): 8 days

Reference: patent US12082597B2, “Supplemented fish feed” (CAN TECHNOLOGIES, INC., priority 2013, dated 2024)
